# Experimental data taken from US20240408099A1, “COMBINATION […] OF KRAS G12D INHIBITORS WITH Pan ErbB FAMILY INHIBITORS” (MIRATI THERAPEUTICS, INC., priority 2021, published 2024).
# Experiments:
# Assay type in all cases: in vivo, nude/nude mice
# AsPC-1 cells [1] = test: AsPC-1 TGI-42 pancreatic cancer xenograft, tumor volumes
# Protocol: (§1) Immunocompromised nude/nude mice are inoculated in the right hind flank with cells harboring a KRas G12D mutation. When tumor volumes reach between 200-400 mm^3 in size, the mice are divided into four to five groups of 5 mice each. The first group is administered vehicle only. […] The fourth or last groups are administered the single agent dose of the KRas G12D inhibitor using the twice daily schedule and/or the 2 sequential days followed by 5 days off schedule in combination with the single agent dose of one of the EGFR inhibitors. The treatment period varies from cell line to cell line but typically is between 15-40 days. Tumor volumes are measured using a caliper every two-three days and tumor volumes are calculated by the formula: […].
# (§2) 20 to 30 nude/nude mice per study were inoculated in the right hind limb with 5×10^6 LS180 cells, AsPC-1 cells, GP2D cells, Panc 02.03 cells, SW1990 cells, or SNU-1033 cells.
# Experimental Procedures. 30 nude/nude mice were inoculated with AsPC-1 cells in the right hind flank. When the tumors reached ˜300 mm^3 six treatment groups were established with five mice per group.
# GP2D cells = test: GP2D TGI MDS 200108-807 colorectal cancer xenograft, tumor volumes; settings: for Average Tumor Volumes: 30 mg/kg BID Daily
# Protocol: as §1, with “The treatment period varies from cell line to cell line but typically is between 15-40 days.” left out
# as §2
# Experimental Procedures. 20 nude/nude mice were inoculated with GP2D cells in the right hind flank. When the tumors reached ˜300 mm^3 four treatment groups were established with five mice per group.
# Panc 02.03 = Panc 02.03 TGI-43 pancreatic cancer xenograft (Table 5), tumor volumes; settings: for Average Tumor Volumes: 30 mg/kg BID 2x/week
# Protocol: as §1, with “The treatment period varies from cell line to cell line but typically is between 15-40 days.” left out
# 20 to 30 nude/nude mice per study were inoculated in the right hind limb with 5×10^6 LS180 cells, AsPC-1 cells, GP2D cells, Panc 02.03 cells, SW1990 cells, or SNU-1033 cells. […]
# SW1990 cells = test: SW1990 TGI MDS #200407-807 pancreatic cancer xenograft, tumor volumes; settings: for Average Tumor Volumes: 30 mg/kg BID Daily
# Protocol: as §1, with “The treatment period varies from cell line to cell line but typically is between 15-40 days.” left out
# as §2
# Experimental Procedures. 30 nude/nude mice were inoculated with SW1990 cells in the right hind flank. When the tumors reached ˜300 mm^3 six treatment groups were established with five mice per group.
# SNU-1033 cells = test: SNU-1033 TGI 46 colorectal cancer xenograft, tumor volumes; settings: for Average Tumor Volumes: 30 mg/kg BID 2x/week
# Protocol: as §1, with “The treatment period varies from cell line to cell line but typically is between 15-40 days.” left out
# as §2
# Experimental Procedures. 20 nude/nude mice were inoculated with SNU-1033 cells in the right hind flank. When the tumors reached ˜300 mm^3 four treatment groups were established with five mice per group.
# AsPC-1 cells [2] = test: AsPC-1 TGI 26 pancreatic cancer xenograft, tumor volumes; settings: for Average Tumor Volumes: 30 mg/kg IP BID daily
# Protocol: as §1, with “The treatment period varies from cell line to cell line but typically is between 15-40 days.” left out
# Experimental Procedures. 20 nude/nude mice were inoculated with AsPC-1 cells in the right hind flank. When the tumors reached ˜200 mm^3 four treatment groups were established with five mice per group.
# HPAC cells = test: HPAC TGI 73 pancreatic cancer xenograft, tumor volumes; settings: for Average Tumor Volumes: 30 mg/kg IP BID daily
# Protocol: as §1
# Experimental Procedures. 20 nude/nude mice were inoculated with HPAC cells in the right hind flank. When the tumors reached ˜200 mm^3 four treatment groups were established with five mice per group.
structure (smiles),measurement,setting,value
"C#Cc1c(F)ccc2cc(O)cc(-c3ncc4c(N5C[C@H]6CC[C@@H](C5)N6)nc(OC[C@@]56CCCN5C[C@H](F)C6)nc4c3F)c12 [MRTX1133, 4-(4-((1R,5S)-3,8-diazabicyclo[3.2.1]octan-3-yl)-8-fluoro-2-(((2R,7aS)-2-fluorohexahydro-1H-pyrrolizin-7a-yl)methoxy)pyrido[4,3-d]pyrimidin-7-yl)-5-ethynyl-6-fluoronaphthalen-2-ol]",Average Tumor Volumes,"AsPC-1 cells [1]; 30 mg/kg BID 2x/week, Study Day 1",325.894 mm^3
same,Average Tumor Volumes,"AsPC-1 cells [1]; 30 mg/kg BID 2x/week, Study Day 6",394.182 mm^3
same,Average Tumor Volumes,"AsPC-1 cells [1]; 30 mg/kg BID 2x/week, Study Day 9",472.586 mm^3
same,Average Tumor Volumes,"AsPC-1 cells [1]; 30 mg/kg BID 2x/week, Study Day 13",496.598 mm^3
same,Average Tumor Volumes,"AsPC-1 cells [1]; 30 mg/kg BID 2x/week, Study Day 16",554.052 mm^3
same,Average Tumor Volumes,"AsPC-1 cells [1]; 30 mg/kg BID 2x/week, Study Day 20",586.5625 mm^3
same,Average Tumor Volumes,"AsPC-1 cells [1]; 30 mg/kg BID 2x/week, Study Day 23",640.49 mm^3
same,Average Tumor Volumes,"AsPC-1 cells [1]; 30 mg/kg BID 2x/week, Study Day 27",679.96 mm^3
same,Average Tumor Volumes,"AsPC-1 cells [1]; 30 mg/kg BID 2x/week, Study Day 30",795.11 mm^3
same,Average Tumor Volumes,"AsPC-1 cells [1]; 30 mg/kg BID 2x/week, Study Day 34",862.74 mm^3
same,Average Tumor Volumes,"AsPC-1 cells [1]; 30 mg/kg BID Daily, Study Day 1",323.454 mm^3
same,Average Tumor Volumes,"AsPC-1 cells [1]; 30 mg/kg BID Daily, Study Day 6",356.398 mm^3
same,Average Tumor Volumes,"AsPC-1 cells [1]; 30 mg/kg BID Daily, Study Day 9",374.684 mm^3
same,Average Tumor Volumes,"AsPC-1 cells [1]; 30 mg/kg BID Daily, Study Day 13",316.51 mm^3
same,Average Tumor Volumes,"AsPC-1 cells [1]; 30 mg/kg BID Daily, Study Day 16",291.71 mm^3
same,Average Tumor Volumes,"AsPC-1 cells [1]; 30 mg/kg BID Daily, Study Day 20",269.246 mm^3
same,Average Tumor Volumes,"AsPC-1 cells [1]; 30 mg/kg BID Daily, Study Day 23",213.334 mm^3
same,Average Tumor Volumes,"AsPC-1 cells [1]; 30 mg/kg BID Daily, Study Day 27",195.354 mm^3
same,Average Tumor Volumes,"AsPC-1 cells [1]; 30 mg/kg BID Daily, Study Day 30",216.072 mm^3
same,Average Tumor Volumes,"AsPC-1 cells [1]; 30 mg/kg BID Daily, Study Day 34",266.324 mm^3
same,tumor regression,"AsPC-1 cells [1]; 30 mg/kg BID daily, single agent, Day 34",−9%
same,Average Tumor Volumes,GP2D cells; Study Day 2,341.3 mm^3
same,Average Tumor Volumes,GP2D cells; Study Day 6,282.98 mm^3
same,Average Tumor Volumes,GP2D cells; Study Day 9,237.18 mm^3
same,Average Tumor Volumes,GP2D cells; Study Day 13,244.1 mm^3
same,Average Tumor Volumes,GP2D cells; Study Day 16,198.725 mm^3
same,Average Tumor Volumes,GP2D cells; Study Day 20,288.05 mm^3
same,Average Tumor Volumes,GP2D cells; Study Day 23,339 mm^3
same,Average Tumor Volumes,GP2D cells; Study Day 27,385.85 mm^3
same,Average Tumor Volumes,GP2D cells; Study Day 30,394.05 mm^3
same,tumor growth inhibition,"GP2D cells; 30 mg/kg BID daily, single agent, Day 30",96%
same,Average Tumor Volumes,Panc 02.03; Study Day 1,329.18 mm^3
same,Average Tumor Volumes,Panc 02.03; Study Day 4,265.246 mm^3
same,Average Tumor Volumes,Panc 02.03; Study Day 8,386.354 mm^3
same,Average Tumor Volumes,Panc 02.03; Study Day 11,392.042 mm^3
same,Average Tumor Volumes,Panc 02.03; Study Day 15,480.434 mm^3
same,Average Tumor Volumes,Panc 02.03; Study Day 18,496.496 mm^3
same,Average Tumor Volumes,Panc 02.03; Study Day 22,549.618 mm^3
same,tumor growth inhibition,"Panc 02.03; 30 mg/kg BID (twice per week), single agent, Day 22",72%
same,Average Tumor Volumes,SW1990 cells; Study Day 2,265.08 mm^3
same,Average Tumor Volumes,SW1990 cells; Study Day 6,194.42 mm^3
same,Average Tumor Volumes,SW1990 cells; Study Day 9,187.24 mm^3
same,Average Tumor Volumes,SW1990 cells; Study Day 13,241.84 mm^3
same,Average Tumor Volumes,SW1990 cells; Study Day 16,235.32 mm^3
same,Average Tumor Volumes,SW1990 cells; Study Day 20,214.98 mm^3
same,Average Tumor Volumes,SW1990 cells; Study Day 23,195.04 mm^3
same,Average Tumor Volumes,SW1990 cells; Study Day −1,362.82 mm^3
same,tumor regression,"SW1990 cells; 30 mg/kg BID daily, single agent, Day 23",−46%
same,Average Tumor Volumes,SNU-1033 cells; Study Day 1,298.92 mm^3
same,Average Tumor Volumes,SNU-1033 cells; Study Day 5,336.336 mm^3
same,Average Tumor Volumes,SNU-1033 cells; Study Day 8,431.99 mm^3
same,Average Tumor Volumes,SNU-1033 cells; Study Day 12,468.892 mm^3
same,Average Tumor Volumes,SNU-1033 cells; Study Day 15,529.222 mm^3
same,Average Tumor Volumes,SNU-1033 cells; Study Day 19,643.516 mm^3
same,Average Tumor Volumes,SNU-1033 cells; Study Day 22,703.368 mm^3
same,Average Tumor Volumes,SNU-1033 cells; Study Day 26,802.69 mm^3
same,Average Tumor Volumes,SNU-1033 cells; Study Day 29,838.708 mm^3
same,Average Tumor Volumes,SNU-1033 cells; Study Day 33,895.918 mm^3
same,tumor growth inhibition,"SNU-1033 cells; 30 mg/kg twice per week, single agent, Day 33",47%
same,Average Tumor Volumes,AsPC-1 cells [2]; Study Day 0,197.468 mm^3
same,Average Tumor Volumes,AsPC-1 cells [2]; Study Day 4,194.514 mm^3
same,Average Tumor Volumes,AsPC-1 cells [2]; Study Day 7,175.198 mm^3
same,Average Tumor Volumes,AsPC-1 cells [2]; Study Day 11,159.756 mm^3
same,Average Tumor Volumes,AsPC-1 cells [2]; Study Day 14,172.986 mm^3
same,Average Tumor Volumes,AsPC-1 cells [2]; Study Day 18,168.412 mm^3
same,Average Tumor Volumes,AsPC-1 cells [2]; Study Day 21,143.928 mm^3
same,Average Tumor Volumes,AsPC-1 cells [2]; Study Day 25,149.308 mm^3
same,tumor regression,"AsPC-1 cells [2]; 30 mg/kg twice daily, single agent, Day 25",−24%
same,Average Tumor Volumes,HPAC cells; Study Day 0,196.76 mm^3
same,Average Tumor Volumes,HPAC cells; Study Day 3,149.646 mm^3
same,Average Tumor Volumes,HPAC cells; Study Day 7,107.504 mm^3
same,Average Tumor Volumes,HPAC cells; Study Day 10,99.742 mm^3
same,Average Tumor Volumes,HPAC cells; Study Day 14,91.818 mm^3
same,Average Tumor Volumes,HPAC cells; Study Day 17,93.348 mm^3
same,Average Tumor Volumes,HPAC cells; Study Day 21,74.006 mm^3
same,tumor regression,"HPAC cells; 30 mg/kg daily, single agent, Day 21",−62%
